How the values were obtained:
C. albicans Bar1 [1] = test: 127 nM C. albicans Bar1 in 50 µM potassium phosphate solution; details: 37°C, up to 24 h
Bar1(D232A) [2] = test: 127 nM Bar1; details: C. albicans, 37°C, up to 1 h
Bar1(D232A) [3] = test: 60 nM Bar1; details: C. albicans, 37°C, up to 90 min
C. albicans Bar1 [4] = test: Bar1 activity on bovine serum albumin; type: biochemical, Candida albicans; details: tested at high protein concentrations, data not shown
S. cerevisiae Bar1 = details: cited from earlier work

Substance | cleaved bond (C. albicans Bar1 [1]) | other results
GFAATNFGYFEPG | T5-N6, 1 h | –
GFRLTAAGYFEPG | T5-A6, 1 h | –
GFRLTNAAYFEPG | T5-N6, 1 h | –
GFRLTNFAAFEPG | T5-N6, 1 h | –
GFRLTNFGAAEPG | – | not cleaved (C. albicans Bar1 [1]): no products were detected
GFRLTNFGYAAPG | – | not cleaved (C. albicans Bar1 [1]): no products were detected
GFRLTNFGYEAAG | – | not cleaved (C. albicans Bar1 [1]): no products were detected
GFRLTNFGYFEAA | – | not cleaved (C. albicans Bar1 [1]): no products were detected
GFRLTNFGYFEPG | threonine5-asparagine6, major, 1 h | not cleaved (Bar1(D232A) [2]): no cleavage products were generated; not cleaved (Bar1(D232A) [3]): no detectable cleavage activity
bovine serum albumin: bovine serum albumin tested as a Bar1 substrate | – | Bar1 activity on protein substrate (C. albicans Bar1 [4]): no detectable activity
pepstatin A | – | sensitivity of S. cerevisiae Bar1 to inhibitor (S. cerevisiae Bar1): insensitive

More lines, main results first:

cleaved bond (C. albicans Bar1 [1]) | Substance | other results
T5-N6, 1 h | AARLTNFGYFEPG | –
T5-N6, 1 h | GAALTNFGYFEPG | –
A5-N6, 1 h | GFRAANFGYFEPG | –
A5-A6, 1 h | GFRLAAFGYFEPG | –
Thr5-Asn6, 1 h | KFKLTNFGYFEPG | –

Reference: article PMC4669382 (mBio, 2015)
